Key:
QG56 cells = test: BrdU/Hoechst quenching assay, cell kinetic FACS analysis (G1 cell cycle arrest); format: cell-based; conditions: incubation for 24 h; for percentage of QG56 cells arrested in the first G1 phase, compared with reference compound: 3 μM; for n-fold increase of cells arrested in first cell cycle: compound concentration 3 μM, QG56 squamous cell carcinoma cells, Control (DMSO) = 1
Method: A squamous cell carcinoma cell line (e.g. QG 56) was cultivated in DMEM/10%FCS/2 mM glutamine at about 60% confluency. Exponentially growing cells were seeded at a density of 1×10^4 cells/cm^2 in 2 ml of medium per 6 wells. After 24 hours medium was replaced and compounds were added.
For the BrdU/Hoechst quenching assay the media were supplemented with […] and deoxycytidine, respectively. All experiments were performed in 6 well culture plates.
The cell culture setup is as described above. All compounds were dissolved in DMSO at a concentration of 10 mM.
Adherent cells were harvested at 24 h by trypsinization and cells from the supernatant were added to the population.
After centrifugation cell pellets were resuspended at 1-10×10^5 cells/ml in DNA-staining puffer (100 mM Tris pH 7.4, 154 mM NaCl, 1 mM CaCl2, 0.5 mM MgCl2, 0.2% BSA, 0.1% NP40) supplemented with 5 ug/ml RNAse A and 1.5 ug/ml Hoechst 33258. After 15 min propidium iodide was added to a final concentration of 1.5 ug/ml for another 15 min. The fluorochrome labeled cells were analysed on a flow cytometer (BD LSR) applying dual laser excitation (UV and 488 nm).
Compounds of Example 1, Example 2 and Example 4 were tested at a concentration of 3 μM.

SMILES	melting point	percentage of QG56 cells arrested in the first G1 phase, compared with reference compound (QG56 cells)	n-fold increase of cells arrested in first cell cycle (QG56 cells)
COc1ccc(C=Cc2nc(COc3ccc(CCCCn4ccnn4)cc3)co2)cc1 [Example 1, 1-[4-(4-{2-[2-(4-Methoxy-phenyl)-vinyl]-oxazol-4-ylmethoxy}-phenyl)-butyl]-1H-[1,2,3]triazole]	148 to 151 °C	higher percentage	23.7 n-fold
C(=Cc1nc(COc2ccc(CCCCn3ccnn3)cc2)co1)c1ccc2c(c1)OCO2 [Example 4, 1-(4-{4-[2-(2-Benzo[1,3]dioxol-5-yl-vinyl)-oxazol-4-ylmethoxy]-phenyl}-butyl)-1H-[1,2,3]triazole]	–	higher percentage	17.9 n-fold
FC(F)(F)c1ccc(C=Cc2nc(COc3ccc(CCCCn4ccnn4)cc3)co2)cc1 [reference compound, 1-[4-(4-{2-[2-(4-Trifluoromethyl-phenyl)-vinyl]-oxazol-4-ylmethoxy}-phenyl)-butyl]-1H-[1,2,3]triazole, reference compound]	–	–	17.2 n-fold

Now from value to compound, other results behind:

melting point	SMILES	percentage of QG56 cells arrested in the first G1 phase, compared with reference compound (QG56 cells)	n-fold increase of cells arrested in first cell cycle (QG56 cells)
138 to 140 °C	FC(F)(F)Oc1ccc(C=Cc2nc(COc3ccc(CCCCn4ccnn4)cc3)co2)cc1 [Example 2, 1-[4-(4-{2-[2-(4-Trifluoromethoxy-phenyl)-vinyl]-oxazol-4-ylmethoxy}-phenyl)-butyl]-1H-[1,2,3]triazole]	higher percentage	19.2 n-fold
144 to 145 °C	FC(F)(F)Sc1ccc(C=Cc2nc(COc3ccc(CCCCn4ccnn4)cc3)co2)cc1 [Example 5, 1-[4-(4-{2-[2-(4-Trifluoromethylsulfanyl-phenyl)-vinyl]-oxazol-4-ylmethoxy}-phenyl)-butyl]-1H-[1,2,3]triazole]	–	–

— patent publication US20040209933A1, “Oxazole derivatives” (priority 2003, published 2004)
